In ChEMBL document CHEMBL1125332, “Synthesis and biological evaluation of 5'-sulfamoylated purinyl carbocyclic nucleosides” (J Med Chem, 1992) one finds IC50 data, which are given here for nine compounds.

Values after ≈ are worked out from the molar mass of the structure shown.

In this assay the test system is P388. Nature of the assay: Cytotoxicity against P388 mouse leukemia cells. Type of assay: functional, cell-based.
As a reminder, the IC50 is the concentration at which inhibition is half-maximal. Compound `CNc1ncnc2c1ncn2C1CC(COS(N)(=O)=O)C(O)C1O` (centres undefined) yielded a half-maximal inhibitory concentration (IC50) of 4 µg/mL (≈ 11.2 µM).
Compound `Nc1ncnc2c1ncn2[C@@H]1C[C@H](CO)[C@@H](O)[C@H]1O` [ARISTEROMYCIN] registered a half-maximal inhibitory concentration (IC50) of 0.5 µg/mL (≈ 1.88 µM).
The compound `COc1ccc(C[C@H](N)C(=O)N[C@H]2[C@@H](O)[C@H](n3cnc4c(N(C)C)ncnc43)O[C@@H]2CO)cc1` [PUROMYCIN] gave an IC50 of 0.5 µg/mL (≈ 1.06 µM).
`CSc1ncnc2c1ncn2C1CC(COS(N)(=O)=O)C(O)C1O` (centres undefined) yielded an IC50 of 50 µg/mL (≈ 133 µM).
With `Nc1ncnc2c1ncn2C1CC(COS(N)(=O)=O)C(O)C1O` (centres undefined), the IC50 worked out at 0.125 µg/mL (≈ 0.363 µM).
`Nc1ncnc2c1nnn2C1CC(CO)C(O)C1O` (centres undefined): the IC50 came out at 0.5 µg/mL (≈ 1.88 µM).
For `CN(C)c1ncnc2c1ncn2C1CC(COS(N)(=O)=O)C(O)C1O` (centres undefined), the IC50 stood at 74 µg/mL (≈ 199 µM).
Compound `Nc1ncnc2c1ncn2COCCOS(N)(=O)=O` yielded an IC50 above 100 µg/mL.
Compound `Nc1ncnc2c1nnn2C1CC(COS(N)(=O)=O)C(O)C1O` (centres undefined) returned an IC50 of 0.0625 µg/mL (≈ 0.181 µM).
